Columns and labels:
[1] = test system: PC-3; assay: Antiproliferative activity against human PC3 cells deficient in PTEN in after 3 to 4 days; type: functional, cell-based
[2] = Clearance in Sprague-Dawley rat at 1 mg/kg, iv; type: ADME, organism-based; set-up: dose 1 mg/kg, route intravenous; settings: in vivo
[3] = Oral bioavailability in Sprague-Dawley rat at 2 mg/kg; type: ADME, organism-based; settings: in vivo
[4] = Clearance in Sprague-Dawley rat liver microsomes; type: ADME, Microsome
[5] = biological target: Phosphatidylinositol 4,5-bisphosphate 3-kinase catalytic subunit alpha isoform (Homo sapiens, UniProt P42336)
Phosphatidylinositol 4,5-bisphosphate 3-kinase catalytic subunit alpha isoform, sequence (P42336 whole entry, canonical isoform): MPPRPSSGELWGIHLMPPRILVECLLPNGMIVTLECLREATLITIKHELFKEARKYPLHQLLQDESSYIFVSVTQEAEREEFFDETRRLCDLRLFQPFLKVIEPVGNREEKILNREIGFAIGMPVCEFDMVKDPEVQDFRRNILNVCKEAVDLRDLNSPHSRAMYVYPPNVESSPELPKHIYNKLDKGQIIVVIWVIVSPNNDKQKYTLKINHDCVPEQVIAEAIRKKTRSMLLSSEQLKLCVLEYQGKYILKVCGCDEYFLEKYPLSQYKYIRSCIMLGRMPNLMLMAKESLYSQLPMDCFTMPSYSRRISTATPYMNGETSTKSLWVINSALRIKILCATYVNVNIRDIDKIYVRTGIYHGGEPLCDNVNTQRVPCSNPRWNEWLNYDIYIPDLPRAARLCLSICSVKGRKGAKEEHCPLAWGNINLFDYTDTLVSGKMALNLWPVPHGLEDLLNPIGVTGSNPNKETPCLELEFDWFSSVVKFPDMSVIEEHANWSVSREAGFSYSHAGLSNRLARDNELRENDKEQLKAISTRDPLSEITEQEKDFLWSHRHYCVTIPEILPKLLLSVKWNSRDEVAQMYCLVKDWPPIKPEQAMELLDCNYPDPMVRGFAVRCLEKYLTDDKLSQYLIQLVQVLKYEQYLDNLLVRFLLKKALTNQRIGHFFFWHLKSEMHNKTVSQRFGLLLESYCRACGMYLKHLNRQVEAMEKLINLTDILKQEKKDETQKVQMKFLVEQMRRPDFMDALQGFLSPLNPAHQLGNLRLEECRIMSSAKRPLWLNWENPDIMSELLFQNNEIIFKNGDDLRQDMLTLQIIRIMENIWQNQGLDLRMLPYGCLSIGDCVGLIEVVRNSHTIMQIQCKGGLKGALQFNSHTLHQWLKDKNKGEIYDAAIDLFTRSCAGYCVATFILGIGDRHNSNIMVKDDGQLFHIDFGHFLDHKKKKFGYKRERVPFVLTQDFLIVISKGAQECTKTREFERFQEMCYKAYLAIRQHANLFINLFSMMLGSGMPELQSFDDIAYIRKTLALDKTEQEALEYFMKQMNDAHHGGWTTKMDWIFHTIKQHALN

[6] = Antiproliferative activity against human MCF7.1 cells expressing PI3Kalpha mutant after 3 to 4 days; type: functional, cell-based
[7] = biological target: Phosphatidylinositol 4,5-bisphosphate 3-kinase catalytic subunit beta isoform (Homo sapiens, UniProt P42338); assay: Inhibition of recombinant PI3Kbeta assessed as PIP3 product formation by fluorescence polarization assay
Phosphatidylinositol 4,5-bisphosphate 3-kinase catalytic subunit beta isoform, sequence (P42338 whole entry, canonical isoform): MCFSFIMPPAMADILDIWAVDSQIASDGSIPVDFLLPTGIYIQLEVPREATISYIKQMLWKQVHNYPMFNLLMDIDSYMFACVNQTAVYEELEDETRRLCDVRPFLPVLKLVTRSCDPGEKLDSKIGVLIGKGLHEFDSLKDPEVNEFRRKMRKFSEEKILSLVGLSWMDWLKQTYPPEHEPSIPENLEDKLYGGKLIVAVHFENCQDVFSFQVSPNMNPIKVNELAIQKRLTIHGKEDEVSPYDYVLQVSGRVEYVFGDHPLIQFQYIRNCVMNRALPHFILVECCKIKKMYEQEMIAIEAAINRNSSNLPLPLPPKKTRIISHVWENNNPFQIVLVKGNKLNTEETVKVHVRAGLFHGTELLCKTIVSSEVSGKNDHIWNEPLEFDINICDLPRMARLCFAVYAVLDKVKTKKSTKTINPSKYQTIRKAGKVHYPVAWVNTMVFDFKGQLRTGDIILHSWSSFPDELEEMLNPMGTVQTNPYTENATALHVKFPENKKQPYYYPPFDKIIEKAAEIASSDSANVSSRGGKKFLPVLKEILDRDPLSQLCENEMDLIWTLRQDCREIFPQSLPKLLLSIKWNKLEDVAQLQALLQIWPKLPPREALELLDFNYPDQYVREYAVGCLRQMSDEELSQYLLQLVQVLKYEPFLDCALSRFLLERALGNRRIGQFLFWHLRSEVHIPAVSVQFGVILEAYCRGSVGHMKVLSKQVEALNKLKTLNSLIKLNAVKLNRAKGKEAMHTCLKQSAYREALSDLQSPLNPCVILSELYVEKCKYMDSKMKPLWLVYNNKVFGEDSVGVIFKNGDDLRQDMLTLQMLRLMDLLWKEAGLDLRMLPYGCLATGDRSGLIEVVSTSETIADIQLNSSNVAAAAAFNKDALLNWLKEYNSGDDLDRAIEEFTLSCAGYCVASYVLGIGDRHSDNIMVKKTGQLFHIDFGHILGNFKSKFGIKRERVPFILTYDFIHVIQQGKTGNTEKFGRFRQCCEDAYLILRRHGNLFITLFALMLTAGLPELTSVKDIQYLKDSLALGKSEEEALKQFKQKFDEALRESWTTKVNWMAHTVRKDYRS

[8] = biological target: T1, Phosphatidylinositol 4,5-bisphosphate 3-kinase catalytic subunit delta isoform (Homo sapiens, UniProt O00329)
T1 sequence (O00329 whole entry): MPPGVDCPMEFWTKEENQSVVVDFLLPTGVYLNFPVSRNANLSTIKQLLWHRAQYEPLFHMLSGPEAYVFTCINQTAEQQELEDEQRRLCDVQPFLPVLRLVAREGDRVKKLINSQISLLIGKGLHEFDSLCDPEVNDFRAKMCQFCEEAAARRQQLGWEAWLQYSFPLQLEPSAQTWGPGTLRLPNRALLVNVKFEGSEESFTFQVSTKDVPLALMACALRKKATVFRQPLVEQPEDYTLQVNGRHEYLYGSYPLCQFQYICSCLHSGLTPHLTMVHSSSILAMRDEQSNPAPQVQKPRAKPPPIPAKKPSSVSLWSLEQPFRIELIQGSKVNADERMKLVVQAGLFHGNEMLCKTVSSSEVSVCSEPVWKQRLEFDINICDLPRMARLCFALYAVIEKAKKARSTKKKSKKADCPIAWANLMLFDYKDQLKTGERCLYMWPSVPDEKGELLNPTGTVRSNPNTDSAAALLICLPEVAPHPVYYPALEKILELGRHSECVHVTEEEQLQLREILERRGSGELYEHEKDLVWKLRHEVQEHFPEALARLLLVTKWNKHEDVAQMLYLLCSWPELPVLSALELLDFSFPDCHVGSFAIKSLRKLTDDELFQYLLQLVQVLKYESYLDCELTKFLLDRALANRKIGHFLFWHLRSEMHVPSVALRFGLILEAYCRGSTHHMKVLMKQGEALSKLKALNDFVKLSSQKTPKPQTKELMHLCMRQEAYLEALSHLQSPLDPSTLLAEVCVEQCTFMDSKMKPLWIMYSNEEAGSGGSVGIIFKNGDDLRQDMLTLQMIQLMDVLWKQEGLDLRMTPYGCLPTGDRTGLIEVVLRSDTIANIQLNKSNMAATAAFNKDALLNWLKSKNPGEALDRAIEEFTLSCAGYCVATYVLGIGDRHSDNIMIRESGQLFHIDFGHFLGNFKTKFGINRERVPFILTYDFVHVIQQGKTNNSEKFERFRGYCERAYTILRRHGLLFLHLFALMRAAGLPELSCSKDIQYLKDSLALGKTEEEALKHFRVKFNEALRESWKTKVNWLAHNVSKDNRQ

[9] = biological target: Phosphatidylinositol 4,5-bisphosphate 3-kinase catalytic subunit gamma isoform (Homo sapiens, UniProt P48736)
Phosphatidylinositol 4,5-bisphosphate 3-kinase catalytic subunit gamma isoform, sequence (P48736 whole entry, canonical isoform): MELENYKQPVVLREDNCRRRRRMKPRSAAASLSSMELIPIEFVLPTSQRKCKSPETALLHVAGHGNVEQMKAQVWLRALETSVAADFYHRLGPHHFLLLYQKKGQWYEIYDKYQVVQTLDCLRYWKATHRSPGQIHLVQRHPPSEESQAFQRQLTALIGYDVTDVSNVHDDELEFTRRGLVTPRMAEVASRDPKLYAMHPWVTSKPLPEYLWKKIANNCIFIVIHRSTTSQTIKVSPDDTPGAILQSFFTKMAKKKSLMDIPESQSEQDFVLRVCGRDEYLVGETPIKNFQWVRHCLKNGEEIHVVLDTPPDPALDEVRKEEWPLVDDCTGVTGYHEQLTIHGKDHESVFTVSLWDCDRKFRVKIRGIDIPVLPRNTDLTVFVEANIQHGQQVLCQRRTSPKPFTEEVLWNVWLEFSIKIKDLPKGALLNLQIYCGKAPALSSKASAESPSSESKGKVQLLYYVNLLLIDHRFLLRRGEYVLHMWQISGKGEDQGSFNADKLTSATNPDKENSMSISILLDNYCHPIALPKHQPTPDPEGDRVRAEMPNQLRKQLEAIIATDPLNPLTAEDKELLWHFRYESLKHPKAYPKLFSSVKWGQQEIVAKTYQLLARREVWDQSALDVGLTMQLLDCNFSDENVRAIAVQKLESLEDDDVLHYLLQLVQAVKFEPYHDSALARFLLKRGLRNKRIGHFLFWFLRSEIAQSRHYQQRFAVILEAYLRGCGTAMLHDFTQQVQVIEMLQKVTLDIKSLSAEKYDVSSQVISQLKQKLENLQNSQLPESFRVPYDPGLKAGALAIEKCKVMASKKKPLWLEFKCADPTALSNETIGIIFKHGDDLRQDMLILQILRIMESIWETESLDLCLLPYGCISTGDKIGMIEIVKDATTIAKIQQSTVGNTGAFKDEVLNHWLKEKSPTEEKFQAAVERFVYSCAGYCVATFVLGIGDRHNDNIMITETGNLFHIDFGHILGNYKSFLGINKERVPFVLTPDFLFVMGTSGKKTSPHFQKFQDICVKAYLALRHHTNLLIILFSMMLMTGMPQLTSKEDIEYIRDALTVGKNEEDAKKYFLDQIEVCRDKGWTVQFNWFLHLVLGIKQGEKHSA

[10] = biological target: Serine/threonine-protein kinase mTOR (Homo sapiens, UniProt P42345)
[11] = Volume of distribution at steady state in Sprague-Dawley rat at 1 mg/kg, iv; type: ADME, organism-based; set-up: dose 1 mg/kg, route intravenous; settings: in vivo, read-out: Vdss
[12] = Clearance in Beagle dog at 1 mg/kg, iv; type: ADME, organism-based, Canis lupus familiaris; set-up: dose 1 mg/kg, route intravenous; settings: in vivo
[13] = Oral bioavailability in Sprague-Dawley rat at 5 mg/kg, po; type: ADME, organism-based; settings: in vivo

Row | Compound | IC50 [1] [µM] | clearance [2] [L/h/kg] | bioavailability [3] [%] | CLint scaled [4] [L/h/kg] | IC50 [5] [µM] | IC50 [6] [µM] | IC50 [7] [µM] | IC50 [8] [µM] | IC50 [9] [µM] | IC50 [10] [µM] | Vd [11] [L/kg] | clearance [12] [L/h/kg] | bioavailability [13] [%]
1 | CC(O)c1cc2nc(-c3cccc4[nH]ncc34)nc(N3CCOCC3)c2s1 (configuration not stated) | 1.1 | 6.06 | 17 | 5.7 | 0.028 |  |  |  |  |  |  |  | 
2 | CS(=O)(=O)N1CCN(Cc2cc3nc(-c4ccccc4)nc(N4CCOCC4)c3s2)CC1 | 3.7 |  |  |  | 0.43 | 3.7 |  |  |  |  |  |  | 
3 | CS(=O)(=O)N1CCN(Cc2cc3nc(-c4ccc(N)cc4)nc(N4CCOCC4)c3s2)CC1 | 1.2 |  |  |  | 0.24 | 2.7 | 1.4 | 0.1 | 1.3 |  |  |  | 
4 | Cc1nc(N)ncc1-c1nc(N2CCOCC2)c2sc(CN3CCN(S(C)(=O)=O)CC3)cc2n1 | 0.23 |  |  |  | 0.0011 | 0.29 | 0.0062 | 0.0007 |  | 0.88 |  |  | 
5 | CC(=O)NCc1cc2nc(-c3cccc4[nH]ncc34)nc(N3CCOCC3)c2s1 | 1.5 | 5.16 | 34 | 2.4 | 0.016 |  |  |  |  |  |  |  | 
6 | OCc1cc2nc(-c3cccc4[nH]ncc34)nc(N3CCOCC3)c2s1 | 1.2 |  |  | 10.2 | 0.029 |  |  |  |  |  |  |  | 
7 | CS(=O)(=O)N1CCN(Cc2cc3nc(-c4cnc(N)nc4)nc(N4CCOCC4)c3s2)CC1 | 0.3 | 1.44 |  |  |  |  | 0.038 | 0.0024 | 0.0084 | 0.029 | 5.6 | 1.32 | 75
8 | CS(=O)(=O)N1CCN(Cc2cc3nc(-c4cccc(CO)c4)nc(N4CCOCC4)c3s2)CC1 | 0.075 |  |  |  | 0.0018 | 0.32 |  | 0.0014 |  |  |  |  | 
9 | CC(C)(O)c1cc2nc(-c3cccc4[nH]ncc34)nc(N3CCOCC3)c2s1 | 1.4 | 0.96 | 29 | 2.4 | 0.022 | 1.4 |  |  |  | 0.13 |  |  | 
10 | CS(=O)(=O)N1CCN(Cc2cc3nc(-c4cccnc4)nc(N4CCOCC4)c3s2)CC1 | 1.8 |  |  |  | 0.021 | 1.4 | 0.014 | 0.012 | 0.019 |  |  |  | 
11 | CS(=O)(=O)N1CCN(Cc2cc3nc(-c4cccc5[nH]ncc45)nc(N4CCOCC4)c3s2)CC1 [PICTILISIB] | 0.39 |  |  |  |  | 0.34 |  |  |  |  |  |  | 
12 | CS(=O)(=O)N1CCN(Cc2cc3nc(-c4ccncc4)nc(N4CCOCC4)c3s2)CC1 |  |  |  |  | 2.9 |  | 5.4 | 0.31 | 5.1 |  |  |  | 
13 | CS(=O)(=O)N1CCN(Cc2cc3nc(-c4ccc(N)nc4)nc(N4CCOCC4)c3s2)CC1 | 0.27 |  |  |  | 0.0055 | 0.2 | 0.06 | 0.0066 |  |  |  | 0.96 | 
14 | CS(=O)(=O)N1CCN(Cc2cc3nc(-c4cccc(O)c4)nc(N4CCOCC4)c3s2)CC1 | 0.021 |  |  |  | 0.0016 | 0.036 | 0.011 | 0.0009 | 0.02 |  |  |  | 
